Test results: patent US20250000989A1, “PYRROLO BENZODIAZEPINE DERIVATIVE, AND CONJUGATE, PREPARATION METHOD AND USE THEREOF” (priority 2021, published 2025)
pIC50: −log10 of the molar value.

Key:
Assay in all cases: Inhibition of in vitro proliferation of tumor cells by PBD compounds (CTG)
Type in all cases: cell-based
[1] = test system: SK-BR-3 tumor cells (human breast cancer cells); details: 144 h, 6 days of culture
Description: (§1) The objective of this assay is to measure the activity of the compounds of the present disclosure in inhibiting the proliferation of different tumor cell lines: SK-BR-3 tumor cells (human breast cancer cells, ATCC, Cat. No. HTB-30), NCI-H23 (human non-small cell lung cancer cells, Nanjing Cobioer, Cat. No. CBP60132), and MKN45 (human gastric cancer cells, Nanjing Cobioer, Cat. No. CBP60488). The cells were treated in vitro with different concentrations of the compounds. After 6 days of culture, the proliferation of the cells was measured using CTG (CellTiter-Glo® Luminescent Cell Viability Assay, Promega, Cat. No. G7573) reagent, and the in vitro activity of the compounds was evaluated based on their IC50 values.
(§2) • 1. Cell culture: SK-BR-3, NCI-H23, and MKN45 cells were separately cultured in McCoy's 5A medium (ThermoFisher, Cat. No. 16600108) and RPMI 1640 medium (ThermoFisher, Cat. No. 11875119) containing 10% FBS (Gibco, 10099-141). • 2. Cell plating: After being digested with trypsin (0.25% Trypsin-EDTA (1×), Life Technologies, Cat. No. 25200-072), the SK-BR-3, NCI-H23, and MKN45 were resuspended in their respective media and counted. The density was adjusted to 1.48×10^4 cells/mL, and the cells were plated onto 96-well plates (corning, Cat. No. 3903) at 135 μL/well, i.e., 2000 cells/well, and cultured at 37° C. for 24 h. • 3. Drug formulation: PBD drugs were formulated in round-bottom 96-well plates. Plate 1: In the first column, the concentration was 0.05 mM; in the second column through the fourth column, a 3-fold serial dilution was performed in DMSO; in the fifth column through the sixth column, a 5-fold serial dilution was performed in DMSO; in the seventh column through the ninth column, a 10-fold serial dilution was performed in DMSO; and the tenth column contained DMSO. Plate 2: Corresponding media were added to the first column through the tenth column at 196 μL/well; 4 μL of solution was transferred from each well of the first column through the tenth column of plate 1 to plate 2 and well mixed with the medium; 15 μL of the mixture was added to the cells plated the day before, and the cells were cultured at 37° C. for another 6 days. • 4. CTG assay: The cell culture plates were taken out and equilibrated to room temperature. CTG was added at 75 μL/well, and the plates were incubated at room temperature in the dark for 10 min. Then luminescence values were measured on a microplate reader (BMG labtech, PHERAstar FS).

[2] = test system: MKN45 (human gastric cancer cells); details: MKN-45, 144 h, 6 days of culture
Description: as §1, §2

[3] = test system: NCI-H23 (human non-small cell lung cancer cells); details: 144 h, 6 days of culture
Description: as §1, §2

COc1cc2c(cc1OCCCCCOc1cc3c(cc1OC)C(=O)N1C=C(c4ccc(N5CCN(C)CC5)cc4)C[C@H]1CN3)N=C[C@@H]1CC3(CC3)CN1C2=O [2-1, (S)-7-Methoxy-8-((5-(((S)-7-methoxy-2-(4-(4-methylpiperazin-1-yl)phenyl)-5-oxo-5,10,11,11a-tetrahydro-1H-benzo[e]pyrrolo[1,2-a][1,4]diazepin-8-yl)oxy)pentyl)oxy)-1,11a-dihydro-3H,5H-spiro[benzo[e]pyrrolo[1,2-a][1,4]diazepine-2,1′-cyclopropan]-5-one]
pIC50 [1]: 10.15 | pIC50 [2]: 10.70 | pIC50 [3]: 10.70

COc1cc2c(cc1OCCCCCOc1cc3c(cc1OC)C(=O)N1C=C(c4ccc(N5CCOCC5)cc4)C[C@H]1CN3)N=C[C@@H]1CC3(CC3)CN1C2=O [2-2, (S)-7-Methoxy-8-((5-(((S)-7-methoxy-2-(4-morpholinylphenyl)-5-oxo-5,10,11,11a-tetrahydro-1H-benzo[e]pyrrolo[1,2-a][1,4]diazepin-8-yl)oxy)pentyl)oxy)-1,11a-dihydro-3H,5H-spiro[benzo[e]pyrrolo[1,2-a][1,4]diazepine-2,1′-cyclopropan]-5-one]
pIC50 [1]: 10.30 | pIC50 [2]: 10.05 | pIC50 [3]: 10.70

COc1cc2c(cc1OCCCCCOc1cc3c(cc1OC)C(=O)N1C=C(c4ccc(SC5CC5)cc4)C[C@H]1CN3)N=C[C@@H]1CC3(CC3)CN1C2=O [2-3]
pIC50 [1]: 9.70 | pIC50 [2]: 9.31 | pIC50 [3]: 10.30

COc1cc2c(cc1OCCCCCOc1cc3c(cc1OC)C(=O)N1C=C(c4ccc(-n5cccn5)cc4)C[C@H]1CN3)N=C[C@@H]1CC3(CC3)CN1C2=O [2-4, (S)-8-((5-(((S)-2-(4-(1H-Pyrazol-1-yl)phenyl)-7-methoxy-5-oxo-5,10,11,11a-tetrahydro-1H-benzo[e]pyrrolo[1,2-a][1,4]diazepin-8-yl)oxy)pentyl)oxy)-7-methoxy-1,11a-dihydro-3H,5H-spiro[benzo[e]pyrrolo[1,2-a][1,4]diazepine-2,1′-cyclopropan]-5-one]
pIC50 [1]: 9.15 | pIC50 [2]: 8.84 | pIC50 [3]: 9.47

COc1cc2c(cc1OCCCCCOc1cc3c(cc1OC)C(=O)N1C=C(c4ccc(C5CCOCC5)cc4)C[C@H]1CN3)N=C[C@@H]1CC3(CC3)CN1C2=O [2-5, (S)-7-Methoxy-8-((5-(((S)-7-methoxy-5-oxo-2-(4-(tetrahydro-2H-pyran-4-yl)phenyl)-5,10,11,11a-tetrahydro-1H-benzo[e]pyrrolo[1,2-a][1,4]diazepin-8-yl)oxy)pentyl)oxy)-1,11a-dihydro-3H,5H-spiro[benzo[e]pyrrolo[1,2-a][1,4]diazepine-2,1′-cyclopropan]-5-one]
pIC50 [1]: 8.74 | pIC50 [2]: 9.04 | pIC50 [3]: 9.39

COc1cc2c(cc1OCCCCCOc1cc3c(cc1OC)C(=O)N1C=C(c4ccc(C5CCN(C)CC5)cc4)C[C@H]1CN3)N=C[C@@H]1CC3(CC3)CN1C2=O [2-6, (S)-7-Methoxy-8-((5-(((S)-7-methoxy-2-(4-(1-methylpiperidin-4-yl)phenyl)-5-oxo-5,10,11,11a-tetrahydro-1H-benzo[e]pyrrolo[1,2-a][1,4]diazepin-8-yl)oxy)pentyl)oxy)-1,11a-dihydro-3H,5H-spiro[benzo[e]pyrrolo[1,2-a][1,4]diazepine-2,1′-cyclopropan]-5-one]
pIC50 [1]: 9.62 | pIC50 [2]: 10.22 | pIC50 [3]: 10.52

COc1cc2c(cc1OCCCCCOc1cc3c(cc1OC)C(=O)N1C=C(c4ccc(-n5nccn5)cc4)C[C@H]1CN3)N=C[C@@H]1CC3(CC3)CN1C2=O [2-7, (S)-8-((5-(((S)-2-(4-(2H-1,2,3-Triazol-2-yl)phenyl)-7-methoxy-5-oxo-5,10,11,11a-tetrahydro-1H-benzo[e]pyrrolo[1,2-a][1,4]diazepin-8-yl)oxy)pentyl)oxy)-7-methoxy-1,11a-dihydro-3H,5H-spiro[benzo[e]pyrrolo[1,2-a][1,4]diazepine-2,1′-cyclopropan]-5-one]
pIC50 [1]: 10.10 | pIC50 [2]: 10.15 | pIC50 [3]: 10.40

COc1cc2c(cc1OCCCCCOc1cc3c(cc1OC)C(=O)N1C=C(c4ccc(C5CCN(CCO)CC5)cc4)C[C@H]1CN3)N=C[C@@H]1CC3(CC3)CN1C2=O [2-9, (S)-8-((5-(((S)-2-(4-(1-(2-Hydroxyethyl)piperidin-4-yl)phenyl)-7-methoxy-5-oxo-5,10,11,11a-tetrahydro-1H-benzo[e]pyrrolo[1,2-a][1,4]diazepin-8-yl)oxy)pentyl)oxy)-7-methoxy-1,11a-dihydro-3H,5H-spiro[benzo[e]pyrrolo[1,2-a][1,4]diazepine-2,1′-cyclopropan]-5-one]
pIC50 [1]: 8.90 | pIC50 [2]: 9.72 | pIC50 [3]: 9.64

COc1cc2c(cc1OCCCCCOc1cc3c(cc1OC)C(=O)N1C=C(c4ccc(C5CCN(C(=O)CO)CC5)cc4)C[C@H]1CN3)N=C[C@@H]1CC3(CC3)CN1C2=O [2-10, (S)-8-((5-(((S)-2-(4-(1-(2-Hydroxyacetyl)piperidin-4-yl)phenyl)-7-methoxy-5-oxo-5,10,11,11a-tetrahydro-1H-benzo[e]pyrrolo[1,2-a][1,4]diazepin-8-yl)oxy)pentyl)oxy)-7-methoxy-1,11a-dihydro-3H,5H-spiro[benzo[e]pyrrolo[1,2-a][1,4]diazepine-2,1′-cyclopropan]-5-one]
pIC50 [1]: 9.20 | pIC50 [2]: 9.21 | pIC50 [3]: 9.70

COc1cc2c(cc1OCCCCCOc1cc3c(cc1OC)C(=O)N1C=C(c4ccc(C5CCN(C(C)=O)CC5)cc4)C[C@H]1CN3)N=C[C@@H]1CC3(CC3)CN1C2=O [2-11, (S)-8-((5-(((S)-2-(4-(1-Acetylpiperidin-4-yl)phenyl)-7-methoxy-5-oxo-5,10,11,11a-tetrahydro-1H-benzo[e]pyrrolo[1,2-a][1,4]diazepin-8-yl)oxy)pentyl)oxy)-7-methoxy-1,11a-dihydro-3H,5H-spiro[benzo[e]pyrrolo[1,2-a][1,4]diazepine-2,1′-cyclopropan]-5-one]
pIC50 [1]: 9.49 | pIC50 [2]: 9.16 | pIC50 [3]: 9.96

COc1ccc(C2=CN3C(=O)c4cc(OC)c(OCC5(CCCOc6cc7c(cc6OC)C(=O)N6CC8(CC8)C[C@H]6C=N7)CC5)cc4NC[C@@H]3C2)cc1 [2-13, (S)-7-Methoxy-8-(3-(1-((((S)-7-methoxy-2-(4-methoxyphenyl)-5-oxo-5,10,11,11a-tetrahydro-1H-benzo[e]pyrrolo[1,2-a][1,4]diazepin-8-yl)oxy)methyl)cyclopropyl)propoxy)-1,11a-dihydro-3H,5H-spiro[benzo[e]pyrrolo[1,2-a][1,4]diazepine-2,1′-cyclopropan]-5-one]
pIC50 [1]: 8.79 | pIC50 [2]: 8.36 | pIC50 [3]: 8.85

COc1ccc(C2=CN3C(=O)c4cc(OC)c(OCCCCCOc5cc6c(cc5OC5CC5)C(=O)N5CC7(CC7)C[C@H]5C=N6)cc4NC[C@@H]3C2)cc1 [2-16, (S)-7-Cyclopropoxy-8-((5-(((S)-7-methoxy-2-(4-methoxyphenyl)-5-oxo-5,10,11,11a-tetrahydro-1H-benzo[e]pyrrolo[1,2-a][1,4]diazepin-8-yl)oxy)pentyl)oxy)-1,11a-dihydro-3H,5H-spiro[benzo[e]pyrrolo[1,2-a][1,4]diazepine-2,1′-cyclopropan]-5-one]
pIC50 [1]: 9.44 | pIC50 [2]: 9.59 | pIC50 [3]: 9.74
